The subject of experiment [1] is isolated human eosinophils. The experiment can be described thus: [Ca2+]i mobilization in isolated human eosinophils. It counts as cell-based. From the text:
Calcium mobilization can be detected and measured by flow cytometry, and by labeling with fluorescent dyes that are trapped intracellularly. […] The ratio of fluorescence produced by the calcium-bound dye to that produce by the unbound dye is used to estimate the intracellular calcium concentration. In one embodiment, for example, the following method can be used. Cells that express CRTH2 are collected, and resuspended in fresh media at ˜2×10^5/ml the day before performing the calcium flux assay. Cells are incubated at 37° C. for not longer than 20-30 minutes, and then spun down and resuspended in 50 ml fresh PTI buffer (Hank's Buffer, pH 7.2-7.4; 10 mM Hepes; 1.6 mM CaCl2) containing Indo-1 AM, pre-warmed to 37° C., at a concentration of 10 million per ml. Cells are excited, and fluorescence is measured using a fluorimeter (Photon Technology Corporation, International). After the readout has stabilized, the time axis is reset, and PGD2 is added at a specific time point (e.g., 20 seconds). After response, the following reagents are added to the cuvette, to release and chelate total calcium, in the following order: 20 μl of 18% Triton X-100, 20 μl of 3M Tris, pH 8.5, and 20 μl of 0.5 M EGTA, pH 8.5. The experiment is repeated in the presence and the absence of a test compound. […] Therefore, in the presence of an […] test compound, the EC50 would be expected to be higher than this value, whereas in the presence of an agonist test compound, the EC50 would be expected to decrease.

In experiment [2] the test system is human whole blood eosinophil. The experiment is described as follows: Human whole blood eosinophil actin-polymerization response. The experiment is classed as cell-based. As to conditions: read-out: Actin-polymer EC50. An excerpt: Yet another secondary screening assay is an actin polymerization assay. Another biological effect of the interaction of PGD2 with CRTH2 is actin polymerization. Thus, an actin polymerization assay may be used as a secondary screen to characterize the activity of a compound isolated in the primary screening assays of the invention. In one embodiment, actin polymerization may be assayed using an actin-specific fluorescent label, nitrobenzoxadiazole (NBD)-phallacidin, which binds polymerized actin fiber. In a specific embodiment, the assay may be performed as follows: cell preparations are resuspended at 5-10×10^6 cells/ml in RPMI 1640 plus 10 mM HEPES, 100/10 Pen/Strep, and 0.5% FCS. The cell suspension is aliquoted (100 μL per well) into a 96-well U-bottom polypropylene microtiter plate. 50 ul of the appropriate stimulus (PGD2 or test compound, or both PGD2 and test compound) is added using an 8-channel pipette followed exactly 25 seconds later by 50 ul of a stopping solution which contains lysophosphotidylcholine (0.5 mg/ml), Hank's balanced salt solution (100 ul 10×), 16% formaldehyde (800 ul), and 6.6 uM NBD-phallacidin in MEOH (100 ul). The plate is allowed to sit at room temperature for 15 minutes. The plate is then centrifuged at 1000 rpm for 5 minutes, the supernatants flicked off and the cell pellets resuspended in 250 ul PBS plus 2%FCS and 0.2% sodium azide. Each sample is then read on a FACS Caliber instrument. Cells are gated using the forward scatter/side scatter data in the lymphocyte area. Responses are measured by the change in median FL-1 fluorescence between vehicle treated cells and stimulus treated cells. Test compounds can be assayed in the presence and absence of PGD2, and compared to a sample containing PGD2 alone. A compound that reduces PGD2-induced actin polymerization of CRTH2 cells is identified as a candidated CRTH2 antagonist.

The test system of experiment [3] is isolated human eosinophils. The experiment can be described thus: Reactive oxygen species (ROS) release in isolated human eosinophils. It counts as cell-based. The procedure:
Another secondary assay is the reactive oxygen species release assay. One measure of PGD2-induced activation of CRTH2 cells, such as eosinophils, is the intracellular release of reactive oxygen species. This can be tested in a reactive oxygen species release assay, or ROS, using lucigenin-dependent chemiluminescence to measure reactive oxygen species release. In this method, freshly isolated eosinophils are prepared, by standard methods, and resuspended at concentration 2-4×10^6 cells/ml in (RPMI; 10 mM HEPES; 1× Pen/Strep; 0.5% FBS) at room temperature. Immediately prior to use, 1 ml of cell suspension is added to 9 ml of buffer, prewarmed to 37° C. for 15 minutes, and added 0.5 ml of 200 mM Lucigenin.
Test compounds (made as 10,000× DMSO stocks) are diluted in buffer with DMSO (1.5 ul of DMSO/2.5 ml Buffer) and 25 μl/well added to white 96-well culture plate and placed in a 37° C. incubator. Isolated cells (held at room temperature) are diluted with room temperature buffer to 2-4×10^6 cells/ml, and incubated in a water bath at 37° C. for 15 minutes. At 15 minutes, 0.5 ml 200 mM lucigenin (bis-N-Methylacridinium Nitrate; Sigma, St. Louis, Mo.) is added to 10 ml of the cell suspension, mixed, and 100 μl/well is added to the prewarmed microtiter plate. The plate is returned to 37° C. for 5 minutes, at which time 25 μl of stimulus is added) The plate is read in the luminometer for 8 cycles. The luminescence of test compounds can be tested in the presence of PGD2, relative to a control sample containing PGD2 alone. A compound that interferes with the ability of PGD2 to result in intracellular reactive oxygen species release in CRTH2 cells, is a candidate for a CRTH2 antagonist.

The target of experiment [4] is T1, human eosinophil [3H]-PGD2 binding site (Homo sapiens, UniProt Q9Y5Y4).
T1 construct: endogenous in cells; host or cells: isolated human eosinophils
T1 sequence (Q9Y5Y4 1-395): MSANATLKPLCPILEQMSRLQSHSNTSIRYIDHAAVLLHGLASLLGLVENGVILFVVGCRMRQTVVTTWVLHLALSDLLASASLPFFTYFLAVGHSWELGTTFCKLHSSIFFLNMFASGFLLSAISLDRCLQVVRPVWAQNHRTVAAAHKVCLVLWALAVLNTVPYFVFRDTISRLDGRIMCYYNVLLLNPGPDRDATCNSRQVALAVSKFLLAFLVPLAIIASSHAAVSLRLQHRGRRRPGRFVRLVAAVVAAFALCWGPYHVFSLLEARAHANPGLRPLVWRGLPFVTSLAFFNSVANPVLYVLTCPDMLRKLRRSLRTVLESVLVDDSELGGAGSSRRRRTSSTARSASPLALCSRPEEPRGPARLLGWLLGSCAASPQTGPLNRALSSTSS
The experiment can be described thus: [3H]PGD2 binding in isolated human eosinophils. Particulars: number in brackets not defined. From the text: As is shown in FIG. 1B, the effects of the prostaglandins and analogs on human eosinophil [^3H]-PGD2 binding site and eosinophil functional responses have the same order of potency (i.e., PGD2>PGF2a>>BW245C).

As to `O=C(O)CCCCCCC1C(=O)NC(=O)N1CCC(O)C1CCCCC1` (stereo not shown) [BW-245C], the EC50 in experiment [1], in experiment [2] and in experiment [3] was over 1000 nM each time. Besides, in experiment [4], the IC50 (usually the concentration at which inhibition is half-maximal) was over 100000 nM.

Turning to `CCCCC[C@H](O)/C=C/[C@H]1C(=O)C[C@H](O)[C@@H]1C/C=C\CCCC(=O)O` [PGD2, prostaglandin D2], the EC50 (in general, the concentration at which the effect is half-maximal) stood at 30 nM in experiment [1], 4 nM in experiment [2] and 2 nM in experiment [3]. Also, in experiment [4], the IC50 came out at 25 nM.

Consider `CCCCC[C@H](O)/C=C/[C@H]1[C@H](O)CC(=O)[C@@H]1C/C=C\CCCC(=O)O` [PGE2], for which the figures for the EC50 in experiment [1], in experiment [2] and in experiment [3] were over 1000 nM, over 300000 nM and over 100 nM, respectively. In addition, the IC50 in experiment [4] turned out to be 3300 nM.

For `CCCCC[C@H](O)/C=C/[C@@H]1[C@@H](C/C=C\CCCC(=O)O)[C@@H](O)C[C@H]1O` [PGF2α], the EC50 in experiment [1] is over 1000 nM; in experiment [2], 1900 nM; in experiment [3] it was over 1000 nM. Further, in experiment [4], the IC50 stood at 1500 nM.

The values above are taken from patent US6878522B2, “Methods for the identification of compounds useful for the treatment of disease states mediated by prostaglandin D2” (priority 2000, dated 2005).
